From ChEMBL document CHEMBL5465560, “Selectivity Literature for EUbOPEN Chemogenomic Library” (2024)

Columns and labels:
[1] = biological target: Myosin light chain kinase, smooth muscle (Homo sapiens, UniProt Q15746); assay: Selectivity interaction (KinomeScan (DiscoverX)) EUB0001079a MYLK; conditions: at 1 µM
[2] = biological target: Rho-associated protein kinase 1 (Homo sapiens) (UniProt Q13464); assay: Selectivity interaction (KinomeScan (DiscoverX)) EUB0001079a ROCK1; conditions: at 1 µM
[3] = biological target: Protein-tyrosine kinase 2-beta (Homo sapiens) (UniProt Q14289); assay: Selectivity interaction (KinomeScan (DiscoverX)) EUB0000618a PTK2B; conditions: at 10 µM
[4] = biological target: Leukocyte tyrosine kinase receptor (Homo sapiens, UniProt P29376); assay: Selectivity interaction (KinomeScan (DiscoverX)) EUB0000618a LTK; conditions: at 10 µM
Sequence of Leukocyte tyrosine kinase receptor (P29376 whole entry): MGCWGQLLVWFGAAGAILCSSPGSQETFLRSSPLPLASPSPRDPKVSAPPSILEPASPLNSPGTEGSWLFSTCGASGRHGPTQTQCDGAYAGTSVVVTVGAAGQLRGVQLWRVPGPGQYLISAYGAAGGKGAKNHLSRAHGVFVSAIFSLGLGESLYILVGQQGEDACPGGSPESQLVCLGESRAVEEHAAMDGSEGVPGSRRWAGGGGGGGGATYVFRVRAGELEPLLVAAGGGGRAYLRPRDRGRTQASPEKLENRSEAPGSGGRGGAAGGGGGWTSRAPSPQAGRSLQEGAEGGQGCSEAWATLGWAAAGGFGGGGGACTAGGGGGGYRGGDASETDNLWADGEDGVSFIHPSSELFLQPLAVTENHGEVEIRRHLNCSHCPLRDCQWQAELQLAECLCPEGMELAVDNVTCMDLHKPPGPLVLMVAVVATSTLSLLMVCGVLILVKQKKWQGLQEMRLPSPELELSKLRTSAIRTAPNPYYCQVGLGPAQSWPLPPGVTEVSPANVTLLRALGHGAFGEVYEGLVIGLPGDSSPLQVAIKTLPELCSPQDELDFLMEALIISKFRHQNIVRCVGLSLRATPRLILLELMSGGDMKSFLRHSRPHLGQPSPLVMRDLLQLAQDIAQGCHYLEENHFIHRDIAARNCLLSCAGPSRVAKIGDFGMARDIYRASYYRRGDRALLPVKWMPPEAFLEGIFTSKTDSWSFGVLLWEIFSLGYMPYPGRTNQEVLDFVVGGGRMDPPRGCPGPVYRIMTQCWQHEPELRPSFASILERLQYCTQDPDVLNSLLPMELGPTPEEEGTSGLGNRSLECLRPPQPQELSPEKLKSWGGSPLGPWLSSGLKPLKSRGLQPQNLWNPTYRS

[5] = biological target: Protein-tyrosine kinase 6 (Homo sapiens, UniProt Q13882); assay: Selectivity interaction (KinomeScan (DiscoverX)) EUB0000618a PTK6; conditions: at 10 µM
Sequence of Protein-tyrosine kinase 6 (Q13882 whole entry, looked up): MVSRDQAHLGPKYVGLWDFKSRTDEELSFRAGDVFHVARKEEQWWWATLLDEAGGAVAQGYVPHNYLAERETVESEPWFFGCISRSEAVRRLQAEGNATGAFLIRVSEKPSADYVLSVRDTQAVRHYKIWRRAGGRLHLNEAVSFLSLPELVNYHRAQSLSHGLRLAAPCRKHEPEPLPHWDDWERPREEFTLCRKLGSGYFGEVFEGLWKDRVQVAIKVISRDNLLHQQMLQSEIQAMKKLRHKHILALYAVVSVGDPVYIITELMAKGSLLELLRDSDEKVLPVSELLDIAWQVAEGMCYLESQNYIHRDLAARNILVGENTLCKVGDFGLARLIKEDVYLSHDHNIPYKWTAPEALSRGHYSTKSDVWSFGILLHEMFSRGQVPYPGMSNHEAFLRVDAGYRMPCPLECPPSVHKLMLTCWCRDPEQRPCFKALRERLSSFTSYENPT

[6] = biological target: T1, Non-receptor tyrosine-protein kinase TNK1 (Homo sapiens) (UniProt Q13470); assay: Selectivity interaction (KinomeScan (DiscoverX)) EUB0000607a TNK1; conditions: at 10 µM
T1 sequence (whole entry): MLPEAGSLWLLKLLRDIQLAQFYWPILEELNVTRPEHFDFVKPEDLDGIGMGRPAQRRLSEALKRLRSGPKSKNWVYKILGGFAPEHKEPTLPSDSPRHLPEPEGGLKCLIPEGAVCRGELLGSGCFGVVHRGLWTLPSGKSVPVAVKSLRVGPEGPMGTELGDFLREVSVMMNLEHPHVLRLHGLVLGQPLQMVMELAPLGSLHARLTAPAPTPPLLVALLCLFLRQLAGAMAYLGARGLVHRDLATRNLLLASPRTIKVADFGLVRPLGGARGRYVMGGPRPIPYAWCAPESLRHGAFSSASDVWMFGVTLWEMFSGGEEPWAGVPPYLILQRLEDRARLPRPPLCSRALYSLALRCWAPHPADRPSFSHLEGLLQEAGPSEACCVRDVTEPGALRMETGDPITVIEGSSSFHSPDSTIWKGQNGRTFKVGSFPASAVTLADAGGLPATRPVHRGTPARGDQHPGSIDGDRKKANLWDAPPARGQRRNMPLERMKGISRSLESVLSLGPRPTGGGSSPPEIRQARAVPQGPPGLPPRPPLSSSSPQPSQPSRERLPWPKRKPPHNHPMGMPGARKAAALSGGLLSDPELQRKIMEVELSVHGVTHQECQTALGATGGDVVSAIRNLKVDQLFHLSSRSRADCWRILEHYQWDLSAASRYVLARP

[7] = biological target: Serine/threonine-protein kinase MARK2 (Homo sapiens) (UniProt Q7KZI7); assay: Selectivity interaction (Upstate Kinase Profiler service (Millipore)) EUB0000056c MARK2; conditions: at 1 µM
[8] = biological target: T2, Serine/threonine-protein kinase 17A (Homo sapiens) (UniProt Q9UEE5); assay: Selectivity interaction (KinomeScan (DiscoverX)) EUB0000229b STK17A; conditions: at 10 µM
T2 sequence (whole entry): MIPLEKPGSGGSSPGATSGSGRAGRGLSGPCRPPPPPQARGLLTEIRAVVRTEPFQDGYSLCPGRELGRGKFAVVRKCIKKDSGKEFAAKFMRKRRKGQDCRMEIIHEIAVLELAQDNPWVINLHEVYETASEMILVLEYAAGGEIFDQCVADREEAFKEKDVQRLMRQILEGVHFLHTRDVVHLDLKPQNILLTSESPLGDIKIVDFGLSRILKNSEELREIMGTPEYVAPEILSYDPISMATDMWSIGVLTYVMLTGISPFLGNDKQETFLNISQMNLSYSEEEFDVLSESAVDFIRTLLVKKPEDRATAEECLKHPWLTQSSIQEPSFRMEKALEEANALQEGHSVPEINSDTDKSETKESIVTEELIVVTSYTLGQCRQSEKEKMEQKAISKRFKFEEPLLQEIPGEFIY

[9] = biological target: Death-associated protein kinase 2 (Homo sapiens) (UniProt Q9UIK4); assay: Selectivity interaction (ProQinase) EUB0000171b DAPK2
Sequence of Death-associated protein kinase 2 (Homo sapiens) (Q9UIK4 whole entry, looked up): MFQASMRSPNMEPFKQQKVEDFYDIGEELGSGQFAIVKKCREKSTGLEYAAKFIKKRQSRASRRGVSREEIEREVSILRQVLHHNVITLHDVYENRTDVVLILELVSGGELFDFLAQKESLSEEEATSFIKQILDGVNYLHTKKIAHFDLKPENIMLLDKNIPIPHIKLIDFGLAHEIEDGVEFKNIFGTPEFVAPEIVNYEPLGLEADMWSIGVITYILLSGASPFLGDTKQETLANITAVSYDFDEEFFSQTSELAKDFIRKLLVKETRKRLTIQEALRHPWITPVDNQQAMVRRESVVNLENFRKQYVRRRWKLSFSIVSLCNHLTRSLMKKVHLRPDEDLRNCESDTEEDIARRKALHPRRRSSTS

[10] = biological target: T3, Homeodomain-interacting protein kinase 4 (Homo sapiens) (UniProt Q8NE63); assay: Selectivity interaction (KinomeScan (DiscoverX)) EUB0000666a HIPK4; conditions: at 10 µM
T3 sequence (whole entry): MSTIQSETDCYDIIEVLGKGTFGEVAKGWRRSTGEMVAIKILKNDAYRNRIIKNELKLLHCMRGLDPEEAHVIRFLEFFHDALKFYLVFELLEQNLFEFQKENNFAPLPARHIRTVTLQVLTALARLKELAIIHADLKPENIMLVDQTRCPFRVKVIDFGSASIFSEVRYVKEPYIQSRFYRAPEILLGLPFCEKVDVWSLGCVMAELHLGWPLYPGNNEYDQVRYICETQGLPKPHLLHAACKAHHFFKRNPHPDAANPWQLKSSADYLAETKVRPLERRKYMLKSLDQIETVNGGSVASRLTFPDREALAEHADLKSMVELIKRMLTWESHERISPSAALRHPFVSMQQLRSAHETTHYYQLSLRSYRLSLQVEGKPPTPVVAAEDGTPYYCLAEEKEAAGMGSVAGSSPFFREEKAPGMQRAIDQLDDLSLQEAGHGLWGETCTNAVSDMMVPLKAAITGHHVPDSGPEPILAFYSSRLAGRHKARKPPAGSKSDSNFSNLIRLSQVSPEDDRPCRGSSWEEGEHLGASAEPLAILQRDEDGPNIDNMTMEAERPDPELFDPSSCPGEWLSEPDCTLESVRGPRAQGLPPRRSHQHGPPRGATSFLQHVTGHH

Sequence of Rho-associated protein kinase 1 (Homo sapiens) (Q13464 2-1354 limits assumed): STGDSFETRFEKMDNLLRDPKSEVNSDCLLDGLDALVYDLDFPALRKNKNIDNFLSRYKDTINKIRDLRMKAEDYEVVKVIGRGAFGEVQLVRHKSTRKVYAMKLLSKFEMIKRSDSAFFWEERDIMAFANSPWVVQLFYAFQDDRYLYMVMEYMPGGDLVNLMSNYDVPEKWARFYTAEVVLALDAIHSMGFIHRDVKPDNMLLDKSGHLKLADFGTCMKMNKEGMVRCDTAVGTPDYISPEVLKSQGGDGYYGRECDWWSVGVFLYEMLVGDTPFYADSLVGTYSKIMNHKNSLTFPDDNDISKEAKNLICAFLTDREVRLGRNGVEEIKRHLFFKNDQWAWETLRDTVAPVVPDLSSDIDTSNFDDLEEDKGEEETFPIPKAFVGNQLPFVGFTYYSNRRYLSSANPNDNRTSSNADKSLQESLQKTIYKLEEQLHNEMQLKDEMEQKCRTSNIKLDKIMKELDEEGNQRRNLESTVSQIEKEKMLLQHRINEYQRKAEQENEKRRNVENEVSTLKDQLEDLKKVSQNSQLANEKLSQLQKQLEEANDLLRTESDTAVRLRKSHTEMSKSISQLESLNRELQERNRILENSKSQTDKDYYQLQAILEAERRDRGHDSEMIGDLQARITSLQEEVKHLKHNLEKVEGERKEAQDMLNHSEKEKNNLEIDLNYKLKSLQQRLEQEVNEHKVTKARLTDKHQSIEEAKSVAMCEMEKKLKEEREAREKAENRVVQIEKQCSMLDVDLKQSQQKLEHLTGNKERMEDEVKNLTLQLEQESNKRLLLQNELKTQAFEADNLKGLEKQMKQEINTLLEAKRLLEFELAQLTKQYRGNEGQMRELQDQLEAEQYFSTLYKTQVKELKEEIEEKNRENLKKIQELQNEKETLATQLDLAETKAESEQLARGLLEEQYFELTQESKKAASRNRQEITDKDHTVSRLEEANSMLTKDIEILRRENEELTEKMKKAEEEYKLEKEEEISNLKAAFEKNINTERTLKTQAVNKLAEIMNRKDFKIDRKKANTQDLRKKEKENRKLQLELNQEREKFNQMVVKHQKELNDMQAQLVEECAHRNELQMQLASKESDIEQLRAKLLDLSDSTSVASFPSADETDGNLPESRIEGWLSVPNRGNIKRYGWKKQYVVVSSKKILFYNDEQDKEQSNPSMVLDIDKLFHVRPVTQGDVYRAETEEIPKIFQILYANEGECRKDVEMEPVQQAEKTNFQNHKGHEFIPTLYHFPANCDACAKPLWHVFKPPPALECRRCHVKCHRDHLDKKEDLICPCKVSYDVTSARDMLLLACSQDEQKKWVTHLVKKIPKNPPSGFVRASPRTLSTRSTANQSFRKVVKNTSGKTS
Sequence of Myosin light chain kinase, smooth muscle (Q15746 whole entry): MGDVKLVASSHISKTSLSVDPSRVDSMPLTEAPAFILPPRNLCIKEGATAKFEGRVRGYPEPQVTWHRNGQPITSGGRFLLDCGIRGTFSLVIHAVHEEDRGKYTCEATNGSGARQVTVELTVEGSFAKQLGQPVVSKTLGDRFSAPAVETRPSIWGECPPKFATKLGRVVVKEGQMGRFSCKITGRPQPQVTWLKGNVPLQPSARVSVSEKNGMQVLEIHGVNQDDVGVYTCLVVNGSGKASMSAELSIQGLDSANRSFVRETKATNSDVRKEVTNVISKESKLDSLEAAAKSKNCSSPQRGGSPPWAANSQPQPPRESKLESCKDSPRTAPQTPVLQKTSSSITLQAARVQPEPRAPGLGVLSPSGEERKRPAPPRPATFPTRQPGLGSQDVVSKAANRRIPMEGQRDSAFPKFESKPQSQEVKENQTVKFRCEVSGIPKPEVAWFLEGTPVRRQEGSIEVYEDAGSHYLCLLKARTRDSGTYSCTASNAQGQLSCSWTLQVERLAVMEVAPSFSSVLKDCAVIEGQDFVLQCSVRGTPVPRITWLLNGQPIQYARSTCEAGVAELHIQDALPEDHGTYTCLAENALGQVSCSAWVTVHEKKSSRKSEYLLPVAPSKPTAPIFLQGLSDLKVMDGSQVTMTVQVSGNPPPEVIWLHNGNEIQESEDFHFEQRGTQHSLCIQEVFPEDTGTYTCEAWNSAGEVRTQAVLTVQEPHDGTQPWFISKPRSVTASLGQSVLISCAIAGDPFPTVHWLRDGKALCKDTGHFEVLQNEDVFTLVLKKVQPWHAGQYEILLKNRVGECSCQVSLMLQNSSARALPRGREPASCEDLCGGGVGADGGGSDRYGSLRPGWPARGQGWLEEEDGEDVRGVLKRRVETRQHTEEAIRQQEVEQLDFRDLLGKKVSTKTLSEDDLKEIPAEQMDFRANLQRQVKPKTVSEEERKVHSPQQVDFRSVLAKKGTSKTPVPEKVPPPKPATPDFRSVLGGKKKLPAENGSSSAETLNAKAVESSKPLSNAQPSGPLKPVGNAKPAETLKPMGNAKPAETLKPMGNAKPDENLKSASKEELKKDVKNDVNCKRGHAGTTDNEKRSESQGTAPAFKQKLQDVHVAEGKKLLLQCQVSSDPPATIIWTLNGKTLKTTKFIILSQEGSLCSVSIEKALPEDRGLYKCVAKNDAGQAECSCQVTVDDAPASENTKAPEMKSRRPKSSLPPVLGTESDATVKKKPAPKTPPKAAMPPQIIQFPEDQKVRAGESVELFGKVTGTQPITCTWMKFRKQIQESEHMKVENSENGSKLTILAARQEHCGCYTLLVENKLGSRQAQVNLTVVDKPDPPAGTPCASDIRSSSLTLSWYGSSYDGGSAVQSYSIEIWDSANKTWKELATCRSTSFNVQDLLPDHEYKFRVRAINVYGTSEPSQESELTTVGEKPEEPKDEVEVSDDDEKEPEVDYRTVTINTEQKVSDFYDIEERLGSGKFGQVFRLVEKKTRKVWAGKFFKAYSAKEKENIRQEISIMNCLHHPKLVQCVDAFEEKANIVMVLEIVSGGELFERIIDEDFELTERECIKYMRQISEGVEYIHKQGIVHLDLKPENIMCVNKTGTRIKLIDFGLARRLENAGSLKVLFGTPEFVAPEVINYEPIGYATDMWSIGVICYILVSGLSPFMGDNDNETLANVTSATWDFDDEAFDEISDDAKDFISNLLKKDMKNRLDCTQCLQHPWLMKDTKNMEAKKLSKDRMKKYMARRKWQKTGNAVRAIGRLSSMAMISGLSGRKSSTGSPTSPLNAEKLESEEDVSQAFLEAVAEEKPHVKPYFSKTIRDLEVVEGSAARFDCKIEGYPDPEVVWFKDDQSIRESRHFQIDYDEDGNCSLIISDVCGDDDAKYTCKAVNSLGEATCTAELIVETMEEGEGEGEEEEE

Compound: Nc1cnc(N2CCc3cc(S(=O)(=O)Nc4c(F)cc(Cl)cc4F)cc(N4CCCC4=O)c32)nc1 [TP-020n]
- % of control [1]: 91%
- % of control [2]: 96%

Compound: O[C@H]1CC[C@H](Nc2ncc3nc(Nc4c(F)cc(F)cc4F)n([C@H]4CCOC4)c3n2)CC1
- % of control [3]: 91%
- % of control [4]: 100%
- % of control [5]: 100%

Compound: CNC(=O)Nc1ccc(-c2nc(N3CC4CCC(C3)O4)c3cnn(C4CCC5(CC4)OCCO5)c3n2)cc1
- % of control [6]: 78%

Compound: Cc1ccc(-c2ccc3c(ccc4sc5c(c43)NC[C@@H](C)NC5=O)n2)cn1
- % of inhibition [7]: 6%

Compound: COc1cc(N(C)c2ccnc3ccc(C(F)(F)F)cc23)cc(OC)c1OC
- % binding [8]: 92%

Compound: C=CC(=O)Nc1cccc(C(=O)Nc2ccc(Nc3cc(-c4[nH]c(SC)nc4C)ccn3)cc2)c1
- % of control ([9]; at 1 µM): 92%
- % of control ([9]; at 5 µM): 78%

Compound: O=C(NOC[C@H](O)CO)c1ccc(F)c(F)c1Nc1ccc(I)cc1F
- % of control [10]: 100%
